The results in this text go back to ChEMBL document CHEMBL1201862, “PubChem BioAssay data set” (2004).

Some test systems named below: SR; HT-29; SK-MEL-5; MOLT-4; M14; OVCAR-8; RXF 393; MDA-N; SF-539; A498; NCI-H460; MCF7; COLO 205; PC-3; OVCAR-3; UACC-62; SN12C; KM12; CCRF-CEM.
Common to all, as to test: NCI tumour cell line growth inhibition, 48 h

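Values below derive from 48-hour exposures of cells grown in 96-well plates, with endpoints linearly interpolated between the two concentrations bracketing the appropriate inhibition level. Here, GI50 denotes the concentration required for 50% inhibition of growth.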 Calls of active or inactive are those of the source. Cut-off read from the data, not from the text of the source: active = GI50 up to about 1.1 µM and inactive = higher. Bounds are passed on as bounds.

Turning to `OC1CCCCCCCCCCC1SCCCCl` (stereo not drawn), the GI50 in the test with SR, in the test on HT-29, with SK-MEL-5, in the test with MOLT-4, in the test on M14 and with OVCAR-8 was > 100 µM (inactive) in each case. Moreover, the GI50 in the test with RXF 393, in the test on MDA-N, in the test with SF-539, in the test on A498, with NCI-H460 and in the test with MCF7 was > 100 µM (inactive) each time. The GI50 in the test with COLO 205, in the test with PC-3, in the test on OVCAR-3, with UACC-62, with SN12C and in the test with KM12 was > 100 µM (inactive) each time.
Turning to `CC1C[C@]2(C)C(=O)N(c3ccccc3)C(=N)[C@@H]2N(C)c2ccccc21` (stereo partly drawn), the GI50 in the test with SR, with HT-29, in the test with SK-MEL-5, in the test on MOLT-4, in the test on M14 and in the test on OVCAR-8 was > 100 µM (inactive) throughout. Further, the GI50 in the test on RXF 393, in the test with MDA-N, in the test with SF-539, with A498, in the test on NCI-H460 and with CCRF-CEM was > 100 µM (inactive) in each case. The GI50 was > 100 µM (inactive) in the test on MCF7; > 100 µM (inactive) with COLO 205; > 100 µM (inactive) with PC-3; 70.1 µM (inactive) with OVCAR-3; > 100 µM (inactive) in the test with UACC-62; 10.8 µM (inactive) in the test with SN12C. Moreover, the GI50 in the test with KM12 was > 100 µM (inactive).
Regarding `CCOC(=O)/C(C(C)=O)=C(\OC(C)=O)c1ccncc1C(=O)O`, the GI50 in the test on SR, in the test on HT-29, in the test with MOLT-4, in the test on M14, with OVCAR-8 and in the test with RXF 393 was > 100 µM (inactive) in each case. For the same compound, the GI50 in the test on MDA-N, in the test on SF-539, with A498, in the test on NCI-H460, in the test on CCRF-CEM and with MCF7 was > 100 µM (inactive) in each case. Moreover, the GI50 with COLO 205, with PC-3, in the test with OVCAR-3, with UACC-62, in the test on SN12C and in the test with KM12 was > 100 µM (inactive) throughout.
For the compound `C=C1C(=O)O[C@H]2[C@H]1CC(=O)/C(C)=C/CC[C@@]1(C)O[C@@H]21`, the GI50 with SR is 0.541 µM (active); in the test with HT-29 it was 1.13 µM (inactive); in the test with SK-MEL-5, 0.973 µM (active); in the test with M14, 0.37 µM (active); with OVCAR-8, 2.01 µM (inactive); in the test with RXF 393, 0.44 µM (active). For the same compound, the GI50 was 0.259 µM (active) in the test on MDA-N; 2.08 µM (inactive) with SF-539; 1.64 µM (inactive) in the test with A498; 10.9 µM (inactive) in the test with NCI-H460; 0.0841 µM (active) in the test on CCRF-CEM; 0.392 µM (active) in the test on MCF7. Also, the GI50 in the test with COLO 205 is 0.255 µM (active); in the test with PC-3 it was 2.19 µM (inactive); with OVCAR-3, 0.224 µM (active); in the test with UACC-62 it was 1.37 µM (inactive); in the test on SN12C it was 1.66 µM (inactive); in the test on KM12 it was 2.49 µM (inactive).
